Counter-ions that a name gives are not always drawn. The source made the active and inactive calls.
What was measured:
[1] = biological target: Glucose-6-phosphate 1-dehydrogenase (Homo sapiens, UniProt P11413); experiment: inhibition of Homo sapiens G6PD, dose series – biochemical, fluorescence, selectivity assay for P. falciparum G6PD inhibitor project, dose response (AID 504792); format: functional
[2] = biological target: T1, Apoptotic protease-activating factor 1 (Homo sapiens, UniProt O14727); format: functional
T1 sequence (O14727 whole entry): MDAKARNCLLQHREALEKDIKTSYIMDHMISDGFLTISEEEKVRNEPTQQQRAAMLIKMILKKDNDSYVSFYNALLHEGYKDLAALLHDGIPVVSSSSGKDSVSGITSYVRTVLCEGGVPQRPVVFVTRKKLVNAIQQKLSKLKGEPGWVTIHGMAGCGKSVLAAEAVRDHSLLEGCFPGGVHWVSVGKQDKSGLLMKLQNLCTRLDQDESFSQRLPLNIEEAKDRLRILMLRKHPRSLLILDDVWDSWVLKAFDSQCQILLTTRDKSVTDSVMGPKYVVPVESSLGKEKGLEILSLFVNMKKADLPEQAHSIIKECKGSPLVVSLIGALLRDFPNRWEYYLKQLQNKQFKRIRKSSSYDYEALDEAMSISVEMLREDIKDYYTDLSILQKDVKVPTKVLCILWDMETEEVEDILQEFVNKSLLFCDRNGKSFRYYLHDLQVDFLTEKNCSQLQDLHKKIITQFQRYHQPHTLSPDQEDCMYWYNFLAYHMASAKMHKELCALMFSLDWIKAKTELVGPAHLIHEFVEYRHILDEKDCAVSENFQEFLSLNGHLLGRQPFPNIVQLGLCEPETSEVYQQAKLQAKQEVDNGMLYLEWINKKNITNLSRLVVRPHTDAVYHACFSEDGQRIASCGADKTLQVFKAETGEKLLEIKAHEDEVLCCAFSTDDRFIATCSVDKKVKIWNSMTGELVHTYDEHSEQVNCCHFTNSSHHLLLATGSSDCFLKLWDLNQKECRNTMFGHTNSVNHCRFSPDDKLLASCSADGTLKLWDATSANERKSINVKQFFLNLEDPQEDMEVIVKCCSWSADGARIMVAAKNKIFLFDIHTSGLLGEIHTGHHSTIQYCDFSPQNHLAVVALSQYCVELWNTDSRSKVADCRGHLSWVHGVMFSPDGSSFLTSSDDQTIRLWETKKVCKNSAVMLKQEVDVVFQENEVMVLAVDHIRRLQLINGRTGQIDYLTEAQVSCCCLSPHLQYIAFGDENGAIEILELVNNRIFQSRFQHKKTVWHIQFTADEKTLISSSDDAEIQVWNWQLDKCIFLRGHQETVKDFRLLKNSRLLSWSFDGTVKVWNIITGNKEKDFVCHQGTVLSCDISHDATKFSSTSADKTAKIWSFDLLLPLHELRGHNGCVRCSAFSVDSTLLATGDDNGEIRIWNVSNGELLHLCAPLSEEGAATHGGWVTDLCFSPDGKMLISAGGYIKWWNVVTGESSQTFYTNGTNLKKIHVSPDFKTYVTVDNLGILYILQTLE

Caspase-6 = biological target: T2, Caspase-6 (Homo sapiens, UniProt P55212); experiment: inhibition of CASP6 peptide cleavage – biochemical, VEID-R110 fluorescence, cherry-pick, dose response (AID 720632)
T2 sequence (P55212 whole entry): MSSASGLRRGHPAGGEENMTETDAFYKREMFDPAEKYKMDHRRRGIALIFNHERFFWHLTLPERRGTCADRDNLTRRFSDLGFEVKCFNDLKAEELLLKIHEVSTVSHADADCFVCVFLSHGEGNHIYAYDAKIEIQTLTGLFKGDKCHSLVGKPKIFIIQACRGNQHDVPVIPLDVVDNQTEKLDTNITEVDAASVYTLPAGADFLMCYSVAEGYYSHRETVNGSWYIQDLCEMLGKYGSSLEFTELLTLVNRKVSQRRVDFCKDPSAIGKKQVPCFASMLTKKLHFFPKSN

Paired box protein Pax-8 = Paired box protein Pax-8 (Homo sapiens, UniProt Q06710); experiment: PAX8 transcriptional activity inhibition in RMG-I – RMG-I cells, luciferase, cherry-pick, dose response (AID 687027); format: functional, cell-based;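 further: luciferase reporter driven by Pax8 target thyroperoxidase promoter measured by SteadyGlo luminescence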
Paired box protein Pax-8, sequence (Q06710 whole entry): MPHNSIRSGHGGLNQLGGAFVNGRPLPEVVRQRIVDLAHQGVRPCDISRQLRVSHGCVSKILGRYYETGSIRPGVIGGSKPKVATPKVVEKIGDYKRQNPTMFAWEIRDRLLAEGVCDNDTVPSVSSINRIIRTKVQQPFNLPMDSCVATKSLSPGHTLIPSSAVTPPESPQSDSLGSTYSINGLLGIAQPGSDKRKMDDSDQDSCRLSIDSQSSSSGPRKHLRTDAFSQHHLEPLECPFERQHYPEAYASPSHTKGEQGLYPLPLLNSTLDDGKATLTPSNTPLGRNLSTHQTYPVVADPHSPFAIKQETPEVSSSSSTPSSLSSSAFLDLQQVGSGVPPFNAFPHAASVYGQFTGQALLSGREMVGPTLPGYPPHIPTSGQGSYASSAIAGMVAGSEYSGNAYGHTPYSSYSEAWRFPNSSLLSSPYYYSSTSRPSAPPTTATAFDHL

[3] = general cell-killing toxicity readout – plate reader, dry powder samples, cytotoxicity control for PAX8 inhibitor project, dose response (AID 743021); format: functional, cell-based
Genome polyprotein = Genome polyprotein (dengue virus type 2, UniProt P29990); experiment: flavivirus cap methylation enzyme inhibition – biochemical, confirmation dose response, primary screen (AID 588689); format: functional
Genome polyprotein, sequence (P29990 2492-3391 limits assumed): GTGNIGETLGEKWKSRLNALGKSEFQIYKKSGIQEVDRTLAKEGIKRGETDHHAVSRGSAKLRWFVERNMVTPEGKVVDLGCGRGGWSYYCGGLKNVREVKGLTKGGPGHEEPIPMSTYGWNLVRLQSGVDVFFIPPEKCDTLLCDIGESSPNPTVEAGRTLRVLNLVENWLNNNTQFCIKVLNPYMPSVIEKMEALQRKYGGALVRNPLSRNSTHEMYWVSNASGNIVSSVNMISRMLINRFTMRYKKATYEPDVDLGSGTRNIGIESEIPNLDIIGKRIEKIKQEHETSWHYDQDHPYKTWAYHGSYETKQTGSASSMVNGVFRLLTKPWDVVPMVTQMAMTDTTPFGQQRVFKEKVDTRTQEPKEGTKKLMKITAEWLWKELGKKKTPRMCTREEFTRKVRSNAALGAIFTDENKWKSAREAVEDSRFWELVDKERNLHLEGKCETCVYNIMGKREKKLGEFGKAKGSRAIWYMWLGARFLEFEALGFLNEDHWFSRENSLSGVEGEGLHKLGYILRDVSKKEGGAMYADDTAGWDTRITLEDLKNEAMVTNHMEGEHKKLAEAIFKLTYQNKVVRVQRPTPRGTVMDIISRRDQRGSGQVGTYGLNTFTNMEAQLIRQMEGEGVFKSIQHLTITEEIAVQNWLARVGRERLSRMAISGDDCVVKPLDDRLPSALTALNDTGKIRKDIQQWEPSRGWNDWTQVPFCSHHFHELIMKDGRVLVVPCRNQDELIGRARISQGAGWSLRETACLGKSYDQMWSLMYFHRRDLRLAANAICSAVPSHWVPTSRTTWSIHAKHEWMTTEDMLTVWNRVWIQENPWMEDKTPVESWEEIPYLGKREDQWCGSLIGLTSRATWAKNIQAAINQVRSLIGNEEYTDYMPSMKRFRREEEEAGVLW

[4] = alpha-synuclein stem-loop luciferase translation blockers – H4 neuroglioma cells, luminescence, confirmation (AID 1988); format: functional, cell-based
HEK293 = experiment: EBV LMP1 TES2 canonical NF-kB signalling blockers – cell-based, HEK293, luciferase, cherry-pick, dose response (AID 588343); format: functional; conditions: Homo sapiens
[5] = Luminescence Cell-Based Dose Response HTS to Identify Inhibitors of 5'UTR Stem-Loop Driven Prion Protein mRNA Translation in H4 Neuroglioblastoma Cells. [Related pubchem assays: 1827 (Project Summary), 1813 (Primary HTS)]; format: functional
[6] = non-specific 3'UTR reporter inhibition in Clone20-Shn3RL – cell-based, Renilla luciferase, cherry-picked, counter-screen for Shn3 inhibitor project, dose response (AID 624133); format: functional
[7] = reduction of Shn3 3'UTR-driven luciferase in osteoblasts – cell-based, Clone20 osteoblasts, firefly luciferase, cherry-picked, dose response (AID 624132); format: functional;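 further: firefly luciferase luminescence from reporter carrying the Shn3 3'UTR in osteoblasts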
[8] = Luminescence Cell-Based Dose Retest to Confirm Inhibitors of Cancer Stem Cells. [Related pubchem assays (depositor defined):AID2717, AID2721]; format: functional; conditions: Homo sapiens
[9] = loss of viability in HepG2 cells – cell-based, CellTiter-Glo, cherry-picked, cytotoxicity control for Shn3 inhibitor project, dose response (AID 624134); format: functional
[10] = RKO cell viability reduction, dose response, CellTiter-Glo luminescence (AID 1117322); format: functional
[11] = SNU-C1 cell viability reduction, dose response, CellTiter-Glo luminescence (AID 1117323); format: functional, cell-based
[12] = HCT116 cell viability decrease, GSK3B pretreatment – CellTiter-Glo, IC50, dose response (AID 1117339); format: functional; conditions: HCT-116
[13] = cytotoxicity toward HCT116 cells – cell-based, CellTiter-Glo luminescence, IC50, dose response (AID 1117332); format: functional; conditions: HCT-116
[14] = cytotoxicity toward Colo320 cells – cell-based, CellTiter-Glo luminescence, IC50, dose response (AID 1117334); format: functional; conditions: COLO 320
[15] = CellTiter-Glo luminescence survival assay, SW480 colon tumor line, concentration-response curve, half-maximal inhibitory concentration (AID 1117338); format: functional
[16] = cytotoxicity toward HT-29 cells – cell-based, CellTiter-Glo luminescence, IC50, dose response (AID 1117330); format: functional
[17] = Reduced DLD-1 viability, concentration-response, CellTiter-Glo luminescence (AID 1117352); format: functional
[18] = OVCAR-3 cell viability loss – plate reader, dry powder samples, PAX8 inhibitor project, dose response (AID 743044); format: functional, cell-based

Glucose-6-phosphate 1-dehydrogenase, sequence (P11413 whole entry): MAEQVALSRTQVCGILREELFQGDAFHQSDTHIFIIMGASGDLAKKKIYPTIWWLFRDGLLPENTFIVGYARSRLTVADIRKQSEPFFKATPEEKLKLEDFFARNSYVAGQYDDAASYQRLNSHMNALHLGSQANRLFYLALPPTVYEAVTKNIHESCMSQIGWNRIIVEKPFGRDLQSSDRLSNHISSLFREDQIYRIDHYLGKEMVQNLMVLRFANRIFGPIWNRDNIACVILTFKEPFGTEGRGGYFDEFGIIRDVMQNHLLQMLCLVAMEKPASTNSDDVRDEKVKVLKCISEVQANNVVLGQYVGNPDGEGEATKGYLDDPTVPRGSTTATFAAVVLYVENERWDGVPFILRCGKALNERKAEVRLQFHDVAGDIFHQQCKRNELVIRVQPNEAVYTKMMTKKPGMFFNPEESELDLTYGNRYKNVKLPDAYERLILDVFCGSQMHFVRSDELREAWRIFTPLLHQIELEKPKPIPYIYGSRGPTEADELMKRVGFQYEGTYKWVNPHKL

CCOC(=O)c1c(C)n(-c2ccc(C)cc2)c2c(C(C(C)=O)C(=O)O)c(Br)c(O)c(O)c12 (centres undefined)
IC50 [1]: 26.5 µM (inactive)
IC50 [2]: 12.3 µM (active)

Oc1ccc(/N=C/c2c(O)ccc3ccccc23)cc1
AC50 (Caspase-6): 10 µM (active)

C(=NNc1ccc2ccccc2n1)c1ccccn1
AC50 (Paired box protein Pax-8): 2.95 µM (active)
AC50 [3]: 58.9 µM (active)

COc1cc(/C=C2/SC(=S)N(CC(=O)O)C2=O)ccc1OC(=O)c1cccs1
IC50 (Genome polyprotein): 88.3 µM (active)

O=C1NC(=O)/C(=C\c2ccc(OCc3cccc(C(=O)O)c3)c(Cl)c2)N1
EC50 [4]: 9.49 µM (inconclusive)
AC50 (HEK293): 6.47 µM (active)
EC50 [5]: 10.6 µM (active)

CCCSc1nnc(CSc2nc3ccccc3s2)n1-c1ccccc1
AC50 [6]: 22.7 µM (active)
AC50 [7]: 7.05 µM (active)
AC50 [8]: 2.8 µM (active)
AC50 [9]: > 70 µM (inactive)

CC(C)Cn1cnc2c1c(=O)n(C)c(=O)n2C [ISBUFYLLINE]
IC50 [10]: > 20 µM (inactive)
IC50 [11]: > 20 µM (inactive)
IC50 [12]: > 20 µM (inactive)
IC50 [13]: > 20 µM (inactive)
IC50 [14]: > 20 µM (inactive)
IC50 [15]: > 20 µM (inactive)
IC50 [16]: > 20 µM (inactive)
IC50 [17]: > 20 µM (inactive)

O=C(Nc1ccccc1)N1CCCCN2[C@H](CO)[C@H](c3ccc(C#Cc4ccccc4)cc3)[C@H]2C1
AC50 (Paired box protein Pax-8): 16.8 µM (active)
AC50 [3]: 35.5 µM (active)
AC50 [18]: 20 µM (active)

COCC(=O)N1CCC(Oc2ccc(C(=O)N3C[C@H]4CC[C@H]3C4)cc2)CC1
AC50 (HEK293): > 350 µM (inactive)

CCC(C(=O)OCCOCCN(CC)CC)c1ccccc1 (centres undefined) [BUTAMIRATE CITRATE]
IC50 [10]: > 20 µM (inactive)
IC50 [11]: > 20 µM (inactive)
IC50 [12]: > 20 µM (inactive)
IC50 [13]: > 20 µM (inactive)
IC50 [14]: > 20 µM (inactive)
IC50 [15]: > 20 µM (inactive)
IC50 [16]: > 20 µM (inactive)
IC50 [17]: > 20 µM (inactive)

O=C(COC(=O)c1ccc([N+](=O)[O-])o1)Nc1ccc(Br)cc1F
AC50 (Caspase-6): 40.1 µM (active)

From ChEMBL document CHEMBL1201862, “PubChem BioAssay data set” (2004)
